Source: ChEMBL document CHEMBL3272104, “Inhibition of Lactobacillus casei thymidylate synthetase by 5-substituted 2'-deoxyuridylates. Preliminary quantitative structure-activity relationship” (J Med Chem, 1977)

B1: Thymidylate synthase (Lactobacillus casei), P00469 (protein)
chain: MLEQPYLDLAKKVLDEGHFKPDRTHTGTYSIFGHQMRFDLSKGFPLLTTKKVPFGLIKSELLWFLHGDTNIRFLLQHRNHIWDEWAFEKWVKSDEYHGPDMTDFGHRSQKDPEFAAVYHEEMAKFDDRVLHDDAFAAKYGDLGLVYGSQWRAWHTSKGDTIDQLGDVIEQIKTHPYSRRLIVSAWNPEDVPTMALPPCHTLYQFYVNDGKLSLQLYQRSADIFLGVPFNIASYALLTHLVAHECGLEVGEFIHTFGDAHLYVNHLDQIKEQLSRTPRPAPTLQLNPDKHDIFDFDMKDIKLLNYDPYPAIKAPVAV

Columns and labels:
Thymidylate synthase [1] = target: T1, Thymidylate synthase (Lactobacillus casei, UniProt P00469); assay: Inhibition of amethopterin-resistant Lactobacillus casei thymidylate synthetase-catalyzed dTMP formation using dUMP as substrate by spectrophotometric analysis in presence of CH2-H4-folate; design: species or system Lacticaseibacillus casei; conditions: read-out: Ki(app)
T1 sequence (P00469 whole entry): B1 chain

[2] = target: T2, Thymidylate synthase (Lactobacillus casei) (UniProt P00469); assay: Activity at amethopterin-resistant Lactobacillus casei thymidylate synthetase assessed as rate of dTMP formation by absorbance analysis in presence of CH2-H4-folate; conditions: Lacticaseibacillus casei
T2 sequence (whole entry): B1 chain

Thymidylate synthase [3] = target: T1, Thymidylate synthase; assay: Inhibition of amethopterin-resistant Lactobacillus casei thymidylate synthetase-catalyzed 5-BrdUMP dehalogenation by absorbance analysis in absence of CH2-H4-folate; design: species or system Lacticaseibacillus casei; conditions: read-out: Ki(app)
[4] = substrate: O=c1ccn([C@H]2C[C@H](O)[C@@H](COP(=O)(O)O)O2)c(=O)[nH]1; conditions: Lacticaseibacillus casei
Description: Activity at amethopterin-resistant Lactobacillus casei thymidylate synthetase by spectrophotometric analysis in presence of CH2-H4-folate

[5] = substrate: O=c1[nH]c(=O)n([C@H]2C[C@H](O)[C@@H](COP(=O)(O)O)O2)cc1Br; assay: Activity at amethopterin-resistant Lactobacillus casei thymidylate synthetase by absorbance analysis; conditions: Lacticaseibacillus casei
[6] = substrate: O=c1[nH]c(=O)n([C@H]2C[C@H](O)[C@@H](COP(=O)(O)O)O2)cc1I; assay: as above; conditions: Lacticaseibacillus casei

| Molecule | Ki (Thymidylate synthase [1]) [nM] | Ki (Thymidylate synthase [3]) [nM] | other results |
| --- | --- | --- | --- |
| O=c1[nH]c(=O)n([C@H]2C[C@H](O)[C@@H](COP(=O)(O)O)O2)cc1I | 1600 | – | Activity [2]: 2.5% |
| O=c1[nH]c(=O)n([C@H]2C[C@H](O)[C@@H](COP(=O)(O)O)O2)cc1Br | 1400 | – | Activity [2]: 3% |
| Cc1cn([C@H]2C[C@H](O)[C@@H](COP(=O)(O)O)O2)c(=O)[nH]c1=O [THYMIDINE MONOPHOSPHATE] | 15500 | 8690 | – |
| O=c1[nH]c(=O)n([C@H]2C[C@H](O)[C@@H](COP(=O)(O)O)O2)cc1Cl | 190 | 9390 | – |
| O=c1ccn([C@H]2C[C@H](O)[C@@H](COP(=O)(O)O)O2)c(=O)[nH]1 [DEOXYURIDINE MONOPHOSPHATE] | – | 2260 | – |
| O=Cc1cn([C@H]2C[C@H](O)[C@@H](COP(=O)(O)O)O2)c(=O)[nH]c1=O | 17 | – | – |
| O=c1[nH]c(=O)n([C@H]2C[C@H](O)[C@@H](COP(=O)(O)O)O2)cc1C(F)(F)F | 39 | – | – |
| B1 | – | – | Km [4]: 5.2 µM; Km [5]: 5.7 µM; Km [6]: 1.44 µM |
